From ChEMBL document CHEMBL1201862, “PubChem BioAssay data set” (2004)
Values belong to the molecule of their own block, whether it stands above or below them. The source made the active and inactive calls.

How the values were obtained:
[1] = biological target: T1, Sentrin-specific protease 8 (Homo sapiens, UniProt Q96LD8); type: functional
T1 sequence (Q96LD8 whole entry): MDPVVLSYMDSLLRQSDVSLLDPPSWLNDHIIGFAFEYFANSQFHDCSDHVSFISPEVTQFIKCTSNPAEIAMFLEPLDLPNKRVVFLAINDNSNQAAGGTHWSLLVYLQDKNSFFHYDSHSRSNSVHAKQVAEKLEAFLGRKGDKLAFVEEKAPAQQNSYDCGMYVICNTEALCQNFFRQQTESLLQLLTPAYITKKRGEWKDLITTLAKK

Beta Lactamase = Beta Lactamase (Pseudomonas aeruginosa, UniProt Q932Y6); assay: BLA reporter interference, concentration series – BLA reporter cells, FRET fluorescence, artefact control for TLR9-MyD88 binding inhibitor project, dose response (AID 588341); type: cell-based;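 note: cell based assay in CHO-K1 cells stably expressing beta-lactamase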
Beta Lactamase, sequence (Q932Y6 whole entry): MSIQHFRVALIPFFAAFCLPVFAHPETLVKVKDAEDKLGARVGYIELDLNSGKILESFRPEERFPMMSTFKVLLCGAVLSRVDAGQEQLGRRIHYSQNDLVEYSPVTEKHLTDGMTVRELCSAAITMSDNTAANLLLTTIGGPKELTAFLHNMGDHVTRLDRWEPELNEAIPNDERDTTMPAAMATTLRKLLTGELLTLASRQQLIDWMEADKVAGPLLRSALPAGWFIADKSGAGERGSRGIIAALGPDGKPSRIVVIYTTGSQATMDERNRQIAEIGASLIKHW

[2] = biological target: T1, Sentrin-specific protease 8; type: functional; remark: listed apart in the source
CHO = CHO cell viability loss, potency – luminescence, cytotoxicity control for TLR9-MyD88 binding inhibitor project, dose response (AID 588339); type: functional, cell-based, hamster; conditions: Cricetulus griseus;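 note: CHO cells stably coexpressing TLR9 and MyD88 fusions from primary screen; compound exposure lasted 48 hours before viability readout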
CAAX prenyl protease 2 = biological target: T2, CAAX prenyl protease 2 (Saccharomyces cerevisiae S288c, UniProt Q03530); assay: inhibition of Rce1p peptide cleavage – biochemical, plate reader, dry powder retest, dose response (AID 588851)
T2 sequence (Q03530 whole entry): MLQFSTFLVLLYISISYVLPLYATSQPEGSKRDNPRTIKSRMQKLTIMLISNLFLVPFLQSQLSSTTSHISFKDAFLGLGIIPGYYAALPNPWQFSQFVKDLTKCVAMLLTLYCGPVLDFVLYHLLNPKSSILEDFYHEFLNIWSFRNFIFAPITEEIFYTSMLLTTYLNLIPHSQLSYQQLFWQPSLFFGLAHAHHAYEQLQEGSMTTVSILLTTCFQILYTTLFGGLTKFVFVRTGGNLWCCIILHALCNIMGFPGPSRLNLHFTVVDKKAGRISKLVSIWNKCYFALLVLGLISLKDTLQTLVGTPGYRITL

Caspase-3 = biological target: T3, Caspase-3 (Homo sapiens, UniProt P42574); assay: inhibition of recombinant caspase-3 activity – biochemical, luminescence, set 2, selectivity assay for SENP protease inhibitor project, SAR follow-up (AID 588599); type: functional
T3 sequence (P42574 whole entry): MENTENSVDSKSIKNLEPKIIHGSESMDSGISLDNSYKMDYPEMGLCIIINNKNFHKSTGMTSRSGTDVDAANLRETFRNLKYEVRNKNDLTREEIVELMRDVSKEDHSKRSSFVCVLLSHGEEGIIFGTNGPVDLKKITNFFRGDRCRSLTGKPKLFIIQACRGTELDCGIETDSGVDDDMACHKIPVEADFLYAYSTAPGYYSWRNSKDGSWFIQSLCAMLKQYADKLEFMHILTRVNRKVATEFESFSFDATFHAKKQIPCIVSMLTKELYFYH

[3] = biological target: T4, Sentrin-specific protease 6 (Homo sapiens, UniProt Q9GZR1); assay: inhibition of human SENP6 catalytic domain – biochemical, luminescence, set 2, SAR follow-up (AID 588598); type: functional
T4 sequence (Q9GZR1 whole entry): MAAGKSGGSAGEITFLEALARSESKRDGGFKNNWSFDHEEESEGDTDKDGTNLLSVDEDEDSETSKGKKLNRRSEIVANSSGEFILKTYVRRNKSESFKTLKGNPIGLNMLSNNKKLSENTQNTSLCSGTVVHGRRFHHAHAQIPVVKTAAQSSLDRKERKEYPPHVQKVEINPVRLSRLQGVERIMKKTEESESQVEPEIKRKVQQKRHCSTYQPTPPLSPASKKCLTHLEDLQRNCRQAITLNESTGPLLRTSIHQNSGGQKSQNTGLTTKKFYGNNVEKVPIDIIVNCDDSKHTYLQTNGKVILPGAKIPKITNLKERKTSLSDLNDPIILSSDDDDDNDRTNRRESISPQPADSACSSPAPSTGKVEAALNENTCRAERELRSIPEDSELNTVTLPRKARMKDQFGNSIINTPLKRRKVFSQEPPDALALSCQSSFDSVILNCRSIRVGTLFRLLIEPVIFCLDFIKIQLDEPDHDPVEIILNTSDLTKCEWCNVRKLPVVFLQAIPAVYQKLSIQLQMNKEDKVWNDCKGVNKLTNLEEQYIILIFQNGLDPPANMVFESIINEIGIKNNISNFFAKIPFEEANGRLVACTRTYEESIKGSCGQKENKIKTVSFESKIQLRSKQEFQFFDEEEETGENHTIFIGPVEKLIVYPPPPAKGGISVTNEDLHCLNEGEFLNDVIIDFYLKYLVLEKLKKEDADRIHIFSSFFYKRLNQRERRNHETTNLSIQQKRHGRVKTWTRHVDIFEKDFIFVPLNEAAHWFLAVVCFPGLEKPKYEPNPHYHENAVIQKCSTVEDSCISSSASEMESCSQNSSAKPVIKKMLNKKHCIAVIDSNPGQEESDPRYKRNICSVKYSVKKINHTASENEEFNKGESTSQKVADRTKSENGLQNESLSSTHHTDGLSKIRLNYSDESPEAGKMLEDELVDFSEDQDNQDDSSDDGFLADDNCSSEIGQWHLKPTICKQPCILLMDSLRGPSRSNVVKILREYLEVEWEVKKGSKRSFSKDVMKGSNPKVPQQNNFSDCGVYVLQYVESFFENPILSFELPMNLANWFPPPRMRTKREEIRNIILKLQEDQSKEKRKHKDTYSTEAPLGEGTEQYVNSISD

[4] = biological target: T1, Sentrin-specific protease 8; assay: inhibition of sentrin protease 8 – biochemical, luminescence, set 2, SAR follow-up (AID 588601); type: functional
[5] = biological target: T5, Sentrin-specific protease 7 (Homo sapiens, UniProt Q9BQF6); assay: inhibition of human SENP7 cleavage activity – biochemical, luminescence, set 2, SAR follow-up (AID 588600); type: functional
T5 sequence (Q9BQF6 whole entry): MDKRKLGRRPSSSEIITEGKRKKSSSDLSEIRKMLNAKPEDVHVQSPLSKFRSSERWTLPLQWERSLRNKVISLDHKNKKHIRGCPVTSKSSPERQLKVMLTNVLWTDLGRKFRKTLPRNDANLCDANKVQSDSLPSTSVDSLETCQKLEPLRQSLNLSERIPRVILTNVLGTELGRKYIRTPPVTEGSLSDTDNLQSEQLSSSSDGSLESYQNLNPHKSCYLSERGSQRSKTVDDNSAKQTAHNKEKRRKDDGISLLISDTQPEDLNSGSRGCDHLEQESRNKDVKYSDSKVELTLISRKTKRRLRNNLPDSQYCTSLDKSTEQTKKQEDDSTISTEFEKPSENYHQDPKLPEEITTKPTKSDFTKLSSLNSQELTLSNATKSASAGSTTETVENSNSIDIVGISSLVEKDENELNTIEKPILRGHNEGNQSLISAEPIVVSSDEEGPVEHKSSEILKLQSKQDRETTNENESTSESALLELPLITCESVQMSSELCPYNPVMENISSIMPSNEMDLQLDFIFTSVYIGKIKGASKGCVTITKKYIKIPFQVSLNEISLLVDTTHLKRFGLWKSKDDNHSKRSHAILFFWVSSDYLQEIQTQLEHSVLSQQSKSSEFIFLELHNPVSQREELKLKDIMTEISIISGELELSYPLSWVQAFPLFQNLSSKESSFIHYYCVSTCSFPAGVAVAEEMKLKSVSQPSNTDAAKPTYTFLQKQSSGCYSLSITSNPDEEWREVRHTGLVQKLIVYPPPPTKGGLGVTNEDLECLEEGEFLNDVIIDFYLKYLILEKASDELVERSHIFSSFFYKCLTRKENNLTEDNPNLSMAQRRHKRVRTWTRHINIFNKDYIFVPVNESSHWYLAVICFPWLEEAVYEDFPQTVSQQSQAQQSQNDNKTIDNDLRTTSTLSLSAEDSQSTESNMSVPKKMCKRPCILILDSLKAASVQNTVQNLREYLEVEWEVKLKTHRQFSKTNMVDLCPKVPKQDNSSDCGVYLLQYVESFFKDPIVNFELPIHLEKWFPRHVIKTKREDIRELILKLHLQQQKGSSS

Structure (SMILES): Cc1ccc(N2C(=O)Cc3ccccc3C2=O)cc1
- IC50 [1]: > 100 µM (inactive)
- IC50 (Beta Lactamase): 4.59 µM (active)
- IC50 [2]: 3.36 µM (active)
- IC50 (CHO): > 49.8 µM (inactive)

- AC50 (CAAX prenyl protease 2): 54.9 µM (active)
Structure (SMILES): CCCOc1ccc(-c2c(C(=O)N/N=C/c3cccs3)nnn2-c2nonc2N)cc1

- IC50 (Caspase-3): > 99 µM (inactive)
- IC50 [3]: > 99 µM (inactive)
- IC50 [5]: > 99 µM (inactive)
Structure (SMILES): CC(C)(C)C(=O)N1CCC(C(=O)Nc2nc3c(F)cc(F)cc3s2)CC1
- IC50 [4]: > 99 µM (inactive)
